Reference: article PMC3494675, “Structure-Function Analysis of the Glioma Targeting NFL-TBS.40-63 Peptide Corresponding to the Tubulin-Binding Site on the Light Neurofilament Subunit” (PLoS ONE, 2012)
Peptide text beside a SMILES is read from it. * marks the point of attachment. Biotin = O=C1N[C@H]2[C@H](CS[C@H]2CCCCC(=O)*)N1

Key:
[1] = system: Human adrenal carcinoma SW13 cells; assay: Effect on MT network of SW13 cells (immunocytochemistry); format: cell-based; conditions: 10 µM, 6 hours
Experimental: (§1) Figure 1 Internalization and effects on glioblastoma T98G cells of the wild type peptide NFL-TBS.40-63 and peptides from the alanine scan. (A): Human glioblastoma T98G cells were incubated in the presence of different peptides at 10 µM during 6 hours. MTs were detected by immunostaining using an anti-tubulin antibody (red), and biotinylated peptides were detected using Alexa-labeled avidin (green). While the original NFL-TBS.40-63 peptide is able to penetrate in these cells, the replacement of valine-14 by alanine typically abolished this property. White bars, 20 µm. (B) Human adrenal carcinoma SW13 cells were incubated in the presence of NFL-TBS.40-63 peptide (10 µM, 6 hours). MTs appear in red, peptide in green, nuclei in blue. White bars, 20 µm. (C): We quantified by microscopy the percentage of T98G cells containing the peptide and those with a destroyed MT network. Experiments were triplicated and a minimum of 200 cells was examined in each experiment. Data are presented as mean and S.E.M. (bars). Asterisks indicate significant level versus control: * p<0.05; ** p<0.005; *** p<0.001. As glioblastoma cells are known to have multiple mutations and abnormalities, the shaded area corresponds to the percentage of cells where MTs are disorganized even in the absence of peptide.
(§2) Cells were plated on cover slips and cultured in media containing biotinylated peptides (10 µM) for 6 hours. […]

[2] = system: T98G human glioblastoma cells; assay: Disintegration of the microtubule network in T98G cells (anti-tubulin immunostaining, cell counting); format: cell-based; conditions: T98G cells, 10 µM biotinylated peptide, 6 hours; anti-tubulin immunostaining; minimum 200 cells per experiment; mean ± S.E.M., triplicated
Outline: (§3)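 Cells on cover slips were cultured 6 h with 10 μM biotinylated peptide, permeabilized, and stained with anti-β-tubulin plus fluorescent streptavidin. By fluorescence/confocal microscopy, ≥200 cells per experiment were scored for peptide uptake and for a normal versus destroyed microtubule network; at least three repeats.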

[3] = system: Human adrenal carcinoma SW13 cells; assay: Peptide entry into SW13 cells (immunocytochemistry); format: cell-based; conditions: 10 µM, 6 hours
Experimental: as §1, §2

[4] = Secondary structure estimation from CD spectra; format: physicochemical; conditions: Reed's reference set
Experimental: (§4) Circular dichroism (CD) spectra were measured in a J-810 CD spectrometer (Jasco, Japan) in step mode (bandwidth: 2 nm; interval: 0.1 nm; response time: 0.125 s). The spectra were averaged over 3 scans to increase the signal to noise ratio. To optimize the measurements, a 1 cm×0.2 cm mini-quartz cell with four windows (Hellema, Germany) was used in such a way that the spectra from 260 to 200 nm were measured with a 1 cm pathlength and those between 220 and 185 nm with 0.2 cm pathlength. After normalization for pathlength (1 cm), the superimposition of two separated spectra in the 200–220 nm region was verified and the entire spectra reconstituted. The temperature of measurement was controlled with a Peltier-effect temperature controller, and was usually 20°C. The structural stability of peptides was studied by measuring the variation in CD signal at 220 nm (bandwidth: 10 nm; interval: 1 s; response time: 0.5 s; pathlength: 1 cm) when the temperature was increased by 1°C/min from 20 to 85°C. All the CD experiments were performed with 20 µM peptide under 3 buffer conditions: pure water, 2 mM SDS and 10 mM potassium phosphate pH 7.4 with 200 mM KF.
The secondary structures were estimated from the CD spectra with Jasco secondary structure estimation software. The spectra from […] were decomposed to α-helix, β-sheet, β-turn and random coil elements using either Reed's or Yang's reference set as reference spectrum of each element as described, [38]. We usually obtained better fits using Reed's reference.

[5] = system: T98G human glioblastoma cells; assay: Peptide incorporation into T98G cells (immunocytochemistry, cell counting); format: cell-based
Outline: as §3

[6] = Structural (thermal) stability by circular dichroism at 220 nm; format: physicochemical
Experimental: as §4, with “The structural stability of peptides was studied by measuring the variation in CD signal at 220 nm (bandwidth: 10 nm; interval: 1 s; response time: 0.5 s; pathlength: 1 cm) when the temperature was increased by 1°C/min from 20 to 85°C.” left out

[7] = KF/phosphate buffer pH 7.4, 20 µM

**Q.** What does the source list for `CC(C)C[C@H](NC(=O)[C@H](CO)NC(=O)[C@H](CO)NC(=O)[C@H](CO)NC(=O)[C@@H](NC(=O)[C@@H]1CCCN1C(=O)[C@H](C)NC(=O)[C@H](CO)NC(=O)[C@H](Cc1ccc(O)cc1)NC(=O)[C@H](CO)NC(=O)[C@H](CO)NC(=O)[C@H](Cc1ccc(O)cc1)NC(=O)CCCC[C@@H]1SC[C@@H]2NC(=O)N[C@@H]21)C(C)C)C(=O)N[C@@H](CO)C(=O)N[C@H](C(=O)N[C@@H](CCCNC(=N)N)C(=O)N[C@@H](CCCNC(=N)N)C(=O)N[C@@H](CO)C(=O)N[C@@H](Cc1ccc(O)cc1)C(=O)N[C@@H](CO)C(=O)N[C@@H](CO)C(=O)N[C@@H](CO)C(=O)N[C@@H](CO)C(=O)NCC(=O)N[C@@H](CO)C(N)=O)C(C)C` [NFL-TBS.40-63] (Biotin-YSSYSAPVSSSLSVRRSYSSSSGS-NH2)?
**A.** Effect on MT network of SW13 cells [1]: without affecting the MT network; Disintegration of MT (% of cells) [2]: 58.4±2.3 % of cells; Entry into SW13 cells [3]: enters in SW13 cells; random coil content ([4]; 2 mM SDS, 20 µM): 40%; α-helix content ([4]; 2 mM SDS, 20 µM): 20%; β-sheet content ([4]; 2 mM SDS, 20 µM): 40%; random coil content [4, 7]: 36%; α-helix content [4, 7]: 7%; β-sheet content [4, 7]: 56%; random coil content ([4]; pure water, 20 µM, 20°C): 75%; β-sheet content ([4]; pure water, 20 µM, 20°C): 25%; Peptide incorporation (% of cells) ([5]; T98G cells, 10 µM biotinylated peptide, 6 hours, Alexa-labeled avidin/streptavidin fluorescence microscopy, minimum 200 cells per experiment, mean ± S.E.M., triplicated): 51.2±4.2 % of cells; Cell penetration of the peptide once heated ([5]; peptide heated in KF/phosphate buffer (thermally unfolded)): could not penetrate into the cells; Refolding on lowering temperature ([6]; CD 220 nm, KF/phosphate buffer, 70 to 10°C at 1°C per min and after 12 hours at 20°C): no refolding was observed; Tm of thermal unfolding ([6]; CD signal at 220 nm, 20 µM peptide, KF/phosphate buffer (10 mM potassium phosphate pH 7.4, 200 mM KF), 1°C/min): about 40 °C; Structural stability with increasing temperature ([6]; CD, 20 µM peptide in 2 mM SDS, up to 70°C): stable
